Data taken from paper PMC9696085, “Fully Symmetric Cyclodextrin Polycarboxylates: How to Determine Reliable Protonation Constants from NMR Titration Data” (International Journal of Molecular Sciences, 2022).
“And” between values parts separate entries of the source, which are not always exact repeats. Identical values can stand only once. Like-named read-outs stand apart in the source and are kept apart here.

What was measured:
[1] = 1H NMR-pH titration, protonation constants; type: physicochemical; settings: for pKa: H2O:D2O = 9:1 solvent mixture; for log k: site-binding model without any pair-interactivity parameters (unsatisfactory fit); for pε12 = averaged interactivity parameter pε¯: site-binding model with a single interactivity parameter; for log kA (carboxylate core microconstant): site-binding model with a single interactivity parameter pε12 (pε¯)
Procedure: The pH meter readings were recorded using a Metrohm pH meter, equipped with a Metrohm 6.0234.110 combined glass electrode. A four-point calibration using pH 2.00, pH 4.00, pH 7.00 and pH 11.00 standard buffer solutions were performed directly before pH adjustments. The pH measurements were performed in 25 mL vessels with proper stirring before transferring 600 μL sample solutions into the NMR tubes. Solutions were prepared in the pH range of 1.50–8.70 with 0.30 increments using 0.9 M, 0.5 M and 0.1 M sodium hydroxide and hydrochloric acid solutions in H2O:D2O = 9:1.
For structural characterizations of CD derivatives in D2O, a 600 MHz Varian DDR NMR spectrometer equipped with a 5 mm inverse-detection gradient probe or a 400 MHz Varian Mercury Plus spectrometer equipped with a 5mm Varian 400 Automation Triple Resonance Broadband Pulsed Field Gradient probe was used. For NMR-pH titrations, the same instruments were used. The pH-dependent series of ^1H NMR spectra were recorded in a solvent mixture of H2O:D2O = 9:1 by volume, where the constant ionic strength and the buffer capacity were adjusted using 0.05 M sodium chloride and 0.05 M acetic acid-d4. An appropriate amount of CD was weighed to obtain a 1 mM solution and finally one drop of methanol was added as a chemical shift reference (3.310 ppm). The water resonance was diminished by the dpfgse pulse sequence or presaturation. All the spectra were processed using the MestReNova v9.0.1-13254 (Mestralab Research, S.L., Santiago de Compostela, Spain) software.
The standard macroscopic evaluation of NMR-pH titration curves (Equation (3) in Section 2.2) was performed with the following software tools: Microcal Origin Pro 8 (OriginLab Corp., Northampton, MA, USA), HypNMR2018 [38], OPIUM [39] and home-written R scripts (R version 4.1.2, The R Foundation, Vienna, Austria) using the nls module. The equidistant macroscopic (Equation (8)) and Q-fitting (Equations (4) and (11)) models were fitted both by Origin and our R-scripts to verify their equivalent performance regarding statistical description of the parameter estimates. The microscopic cluster expansion model in Section 2.5 requires summation of >100 variables which is unfeasible in the form of an explicit model function required by commercial data-fitting software like Origin. The enumeration of microspecies was therefore accomplished in a custom-written R script. To assess the robustness of our data-fitting model as well as the error propagation of the optimized log k and pε parameters to the derived log K macroconstants, Monte Carlo simulations on >1000 replicates were performed in R.

[2] = design: method as in PMID 18613172; settings: literature, cited from earlier work
[3] = ED macro or Q-fitting evaluation, ? = physically unrealistic, SD in parentheses
[4] = ED macro or Q-fitting evaluation, H2O:D2O = 9:1, 0.05 M NaCl, SD in parentheses
[5] = from ED macro or Q-fitting macroconstants by Eq. 18
[6] = from ED macro or Q-fitting macroconstants by Eq. 18, ? = physically unrealistic
[7] = site-binding (SB) microscopic evaluation
[8] = site-binding (SB) microscopic evaluation, converted from log kA and pε, errors by Monte Carlo
[9] = site-binding model with two interactivity parameters, standard deviation 138, overparametrized
[10] = converted from optimized microscopic basicity parameters (site-binding model)

O=C(O)CCSC[C@H]1O[C@@H]2O[C@H]3[C@H](O)[C@@H](O)[C@@H](O[C@H]4[C@H](O)[C@@H](O)[C@@H](O[C@H]5[C@H](O)[C@@H](O)[C@@H](O[C@H]6[C@H](O)[C@@H](O)[C@@H](O[C@H]7[C@H](O)[C@@H](O)[C@@H](O[C@H]8[C@H](O)[C@@H](O)[C@@H](O[C@H]9[C@H](O)[C@@H](O)[C@@H](O[C@H]1[C@H](O)[C@H]2O)O[C@@H]9CO)O[C@@H]8CO)O[C@@H]7CO)O[C@@H]6CO)O[C@@H]5CO)O[C@@H]4CO)O[C@@H]3CO [mono-Suγ-CD, mono-sugammadex]
log K ([1]; standard macroscopic evaluation, Equation (3), n = 1): 4.35 (0.01)

O=C(O)CCSC[C@H]1O[C@@H]2O[C@H]3[C@H](O)[C@@H](O)[C@@H](O[C@H]4[C@H](O)[C@@H](O)[C@@H](O[C@H]5[C@H](O)[C@@H](O)[C@@H](O[C@H]6[C@H](O)[C@@H](O)[C@@H](O[C@H]7[C@H](O)[C@@H](O)[C@@H](O[C@H]1[C@H](O)[C@H]2O)O[C@@H]7CSCCC(=O)O)O[C@@H]6CSCCC(=O)O)O[C@@H]5CSCCC(=O)O)O[C@@H]4CSCCC(=O)O)O[C@@H]3CSCCC(=O)O [Suα-CD, sualphadex]
log K4 [1, 3]: 4.70 (0.14) | log K6 [1, 3]: 3.77 (0.07) | log K1 [1, 4]: 6.43 (0.07) | log K2 [1, 4]: 5.79 (0.09) | log K3 [1, 4]: 5.26 (0.11) | pKa ([1]; converted from optimized microscopic basicity parameters (site-binding model), read-out: macroscopic pKa, 1st of the set): 3.84 | pKa ([1]; converted from optimized microscopic basicity parameters (site-binding model), read-out: macroscopic pKa, 2nd of the set): 4.35 | pKa ([1]; converted from optimized microscopic basicity parameters (site-binding model), read-out: macroscopic pKa, 3rd of the set): 4.81 | pKa ([1]; converted from optimized microscopic basicity parameters (site-binding model), read-out: macroscopic pKa, 4th of the set): 5.31 | pKa ([1]; converted from optimized microscopic basicity parameters (site-binding model), read-out: macroscopic pKa, 5th of the set): 5.78 | pKa ([1]; converted from optimized microscopic basicity parameters (site-binding model), read-out: macroscopic pKa, 6th of the set): 6.28 | log k¯1 (averaged microconstant) [1, 5]: 5.65 (0.07) | log k¯2 (averaged microconstant) [1, 5]: 5.39 (0.09) | log k¯3 (averaged microconstant) [1, 5]: 5.13 (0.12) | log k¯6 (averaged microconstant) [1, 6]: 4.55 (0.07) | log k¯1 (averaged microconstant) [1, 7]: 5.51 (0.02) | log k¯2 (averaged microconstant) [1, 7]: 5.38 (0.02) | log k¯3 (averaged microconstant) [1, 7]: 5.18 (0.02) | log k¯4 (averaged microconstant) [1, 7]: 4.94 (0.02) | log k¯5 (averaged microconstant) [1, 7]: 4.75 (0.02) | log k¯6 (averaged microconstant) [1, 7]: 4.62 (0.02) | log K1 [1, 8]: 6.28 (0.02) | log K2 [1, 8]: 5.78 (0.02) | log K3 [1, 8]: 5.31 (0.02) | log K4 [1, 8]: 4.81 (0.02) | log K5 [1, 8]: 4.35 (0.02) | log K6 [1, 8]: 3.84 (0.02) | log kA ([1]; site-binding model with two interactivity parameters (pε12 and pε13), overparametrized): 5.63 (7) | pε12 [1, 9]: 0.28 | pε13 [1, 9]: 0.28 | log k [1]: 5.049

O=C(O)CCSC[C@H]1O[C@@H]2O[C@H]3[C@H](O)[C@@H](O)[C@@H](O[C@H]4[C@H](O)[C@@H](O)[C@@H](O[C@H]5[C@H](O)[C@@H](O)[C@@H](O[C@H]6[C@H](O)[C@@H](O)[C@@H](O[C@H]7[C@H](O)[C@@H](O)[C@@H](O[C@H]8[C@H](O)[C@@H](O)[C@@H](O[C@H]9[C@H](O)[C@@H](O)[C@@H](O[C@H]1[C@H](O)[C@H]2O)O[C@@H]9CSCCC(=O)O)O[C@@H]8CSCCC(=O)O)O[C@@H]7CSCCC(=O)O)O[C@@H]6CSCCC(=O)O)O[C@@H]5CSCCC(=O)O)O[C@@H]4CSCCC(=O)O)O[C@@H]3CSCCC(=O)O [Suγ-CD, sugammadex, reference compound]
log K4 [1, 3]: 5.28 (0.22) | log K5 [1, 3]: 5.14 (0.22) | log K6 [1, 3]: 4.59 (0.17) | log K1 [1, 4]: 6.68 (0.08) | log K2 [1, 4]: 6.17 (0.12) | log K3 [1, 4]: 5.88 (0.16) | log K8 ([1]; ED macro or Q-fitting evaluation, SD in parentheses): 3.78 (0.07) | macroscopic pKa, 1st of the set [1, 10]: 3.83 | macroscopic pKa, 2nd of the set [1, 10]: 4.28 | macroscopic pKa, 3rd of the set [1, 10]: 4.65 | macroscopic pKa, 4th of the set [1, 10]: 5.03 | macroscopic pKa, 5th of the set [1, 10]: 5.43 | macroscopic pKa, 6th of the set [1, 10]: 5.81 | macroscopic pKa, 7th of the set [1, 10]: 6.18 | macroscopic pKa, 8th of the set [1, 10]: 6.64 | log k¯1 (averaged microconstant) [1, 5]: 5.77 (0.08) | log k¯2 (averaged microconstant) [1, 5]: 5.63 (0.12) | log k¯3 (averaged microconstant) [1, 5]: 5.58 (0.16) | log k¯8 (averaged microconstant) [1, 5]: 4.69 (0.07) | log k¯4 (averaged microconstant) [1, 6]: 5.18 (0.22) | log k¯5 (averaged microconstant) [1, 6]: 5.24 (0.22) | log k¯6 (averaged microconstant) [1, 6]: 4.89 (0.17) | log k¯1 (averaged microconstant) [1, 7]: 5.73 (0.02) | log k¯2 (averaged microconstant) [1, 7]: 5.64 (0.02) | log k¯3 (averaged microconstant) [1, 7]: 5.51 (0.02) | log k¯4 (averaged microconstant) [1, 7]: 5.33 (0.01) | log k¯5 (averaged microconstant) [1, 7]: 5.13 (0.01) | log k¯6 (averaged microconstant) [1, 7]: 4.95 (0.02) | log k¯7 (averaged microconstant) [1, 7]: 4.82 (0.02) | log k¯8 (averaged microconstant) [1, 7]: 4.73 (0.02) | log K1 [1, 8]: 6.64 (0.02) | log K2 [1, 8]: 6.18 (0.02) | log K3 [1, 8]: 5.81 (0.02) | log K4 [1, 8]: 5.43 (0.01) | log K5 [1, 8]: 5.03 (0.01) | log K6 [1, 8]: 4.65 (0.02) | log K7 [1, 8]: 4.28 (0.02) | log K8 [1, 8]: 3.83 (0.02) | pε12 = averaged interactivity parameter pε¯ [1]: 0.503 | log kA (carboxylate core microconstant) [1]: 5.735 and 5.73 | log k [1]: 5.22

O=C(O)CCSC[C@H]1O[C@@H]2O[C@H]3[C@H](O)[C@@H](O)[C@@H](O[C@H]4[C@H](O)[C@@H](O)[C@@H](O[C@H]5[C@H](O)[C@@H](O)[C@@H](O[C@H]6[C@H](O)[C@@H](O)[C@@H](O[C@H]7[C@H](O)[C@@H](O)[C@@H](O[C@H]8[C@H](O)[C@@H](O)[C@@H](O[C@H]1[C@H](O)[C@H]2O)O[C@@H]8CSCCC(=O)O)O[C@@H]7CSCCC(=O)O)O[C@@H]6CSCCC(=O)O)O[C@@H]5CSCCC(=O)O)O[C@@H]4CSCCC(=O)O)O[C@@H]3CSCCC(=O)O [Suβ-CD, subetadex]
log K5 [1, 3]: 4.54 (0.06) | log K7 [1, 3]: 3.69 (0.03) | log K1 [1, 4]: 6.60 (0.03) | log K2 [1, 4]: 6.18 (0.04) | log K3 [1, 4]: 5.27 (0.08) | macroscopic pKa, 1st of the set [1, 10]: 3.82 | macroscopic pKa, 2nd of the set [1, 10]: 4.31 | macroscopic pKa, 3rd of the set [1, 10]: 4.73 | macroscopic pKa, 4th of the set [1, 10]: 5.18 | macroscopic pKa, 5th of the set [1, 10]: 5.64 | macroscopic pKa, 6th of the set [1, 10]: 6.06 | macroscopic pKa, 7th of the set [1, 10]: 6.54 | log k¯1 (averaged microconstant) [1, 5]: 5.75 (0.03) | log k¯2 (averaged microconstant) [1, 5]: 5.71 (0.04) | log k¯3 (averaged microconstant) [1, 5]: 5.04 (0.08) | log k¯5 (averaged microconstant) [1, 6]: 4.76 (0.06) | log k¯7 (averaged microconstant) [1, 6]: 4.53 (0.03) | log k¯1 (averaged microconstant) [1, 7]: 5.70 (0.02) | log k¯2 (averaged microconstant) [1, 7]: 5.58 (0.02) | log k¯3 (averaged microconstant) [1, 7]: 5.42 (0.02) | log k¯4 (averaged microconstant) [1, 7]: 5.18 (0.01) | log k¯5 (averaged microconstant) [1, 7]: 4.95 (0.02) | log k¯6 (averaged microconstant) [1, 7]: 4.78 (0.02) | log k¯7 (averaged microconstant) [1, 7]: 4.67 (0.02) | log K1 [1, 8]: 6.54 (0.02) | log K2 [1, 8]: 6.06 (0.02) | log K3 [1, 8]: 5.64 (0.02) | log K4 [1, 8]: 5.18 (0.01) | log K5 [1, 8]: 4.73 (0.02) | log K6 [1, 8]: 4.31 (0.02) | log K7 [1, 8]: 3.82 (0.02) | pε12 = averaged interactivity parameter pε¯ [1]: 0.5144 | log kA (carboxylate core microconstant) [1]: 5.697 and 5.70 | log k [1]: 5.17 | log K1 ([2]; potentiometric): 6.49 (1) | log K2 ([2]; potentiometric): 5.69 (1) | log K3 ([2]; potentiometric): 5.25 (1) | log K4 ([2]; potentiometric): 4.75 (1) | log K5 ([2]; potentiometric): 4.31 (1) | log K6 ([2]; potentiometric): 3.78 (1) | log K7 ([2]; potentiometric): <3 | log kA [2]: 5.64
